How the values were obtained:
[1] = biological target: T1, GLP-1R in a pancreatic insulinoma cell line (EndoC-PH1) (Homo sapiens, UniProt P43220); assay: EndoC cAMP Accumulation Assay (HTRF); type: cell-based; conditions: EndoC-PH1 human pancreatic beta cell line, endogenous GLP-1R, 30 min at rt
T1 construct: host or cells: EndoC-βH1 human pancreatic beta cell line
Description: EndoC cAMP Accumulation Assay
A HTRF cAMP assay (cAMP Gs dynamic kit; CisoBio Cat #62AM4PEJ) was used to identify agonists of GLP-1R in a pancreatic insulinoma cell line (EndoC-PH1). […] EndoC-PHlcells have detectable GLP-1R messenger ribonucleic acid (mRNA) as detected by quantitative polymerase chain reaction (qPCR). […] The EndoC-PH1 cell line is a valid model of human beta cells and applicable for screenings to identify novel drug target candidates (Mol. Metab., 2018, 8, 144-157). CisBio HTRF cAMP kits are based on a competitive immunoassay using cryptate-labelled anti-cAMP antibody and d2-labeled cAMP. The detection kit is intended for the direct is quantitative determination of cAMP. The specific signal (i.e. energy transfer) is inversely proportional to the concentration of cAMP in the standard or sample. Test compounds (10 mM in DMSO) were diluted into assay buffer (HBSS (Sigma #H8264) supplemented with 25 mM HEPES (Gibco #15630, pH 7.4), 0.1% BSA (Sigma #A3059) and 0.5 mM IBMX (Sigma #I7018) included fresh on the day of the assay) into 96 well U-bottom plates (Greiner #650201). Diluted compounds were transferred to ECHO source polypropelene plates (Labcyte #P-05525) and dose response curves were dispensed acoustically using ECHO 550 into black shallow-well u-bottom 384-well HTRF Assay Plates (Corning 4514). Cryovials of EndoC-H1 (supplied at 1×10e^7 cells/vial) were used directly for screening. The cryovials and were removed from N2(1) and thawed rapidly in a 37° C. water bath. The cells were resuspended in assay buffer and centrifuged at 300 g for 5 min. Cells were resuspended in assay buffer at the appropriate concentration, typically at 12e5 cells per mL (3000 cells per well, dependent on cell batch) and 2.5 μL diluted cells were added to all wells of destination plate by Multidrop combi reagent dispenser (Thermofisher). The plates were incubated at rt for 30 min. The assay was stopped by adding 2.5 μL anti-cAMP cryptate solution to all wells and 2.5 μL cAMP-d2 solution (both diluted 1:20 in lysis buffer) to columns 1-22 by Combi drop. A volume of 2.5 μL cAMP-d2 solution was added to wells E23 to P24 and 2.5 μL lysis buffer added to wells A23 to D24 by multichannel pipette. The plates were incubated at rt for 1 h and read on an Envision plate reader using excitation wavelength of 320 nm and emission of […] and 660 nm.
Raw data from Envision is converted to % DeltaF according to the manufacturer's instructions. Dose response curves are analysed via 4-Parameter Logistical Analysis and assay plate Z’ values obtained. Samples are graphed as percentage (%) activation plots compared to […] with assay window defined by negative control as basal cell is cAMP levels and positive control are defined by maximum GIP (82.5 nM) signal. GLP-1 (7-36 amide, Bachem H-6795) dose response curve was included on all plates.

human GLP-1R receptor = biological target: T2, human GLP-1R receptor (Homo sapiens, UniProt P43220, L260F); assay: CHOK1 GLP-1R cAMP Assay (HTRF); type: cell-based; conditions: CHO-K1 cells stably expressing human GLP-1R (Leu260Phe variant), 20 min at rt
T2 construct: expressed in transfected cells; host or cells: CHO-K1 (ATCC CCL-61)
Experimental: A cell line stably expressing the human GLP-1R receptor (NM_002062.5, including the naturally-occurring variant Leu260Phe) in a CHO-K1 (ATCC® CCL-61™) was used for assay.
GLP-1 receptor mediated agonist activity was determined in a cell-based assay measuring cyclic adenosine monophosphate (cAMP) levels in cells using Homogeneous Time-Resolved Fluorescence (HTRF) cAMP detection kit (CisBio catalog #62AM4PEC, cAMP Gs Dynamic range kit). The cAMP detection method is based on a competitive immunoassay, in which cAMP produced by the cells and cAMP labeled with the dye d2 compete for binding to a Europium-Cryptate-labeled anti-cAMP antibody. The specific HTRF signal is inversely proportional to the concentration of cAMP.
Compounds were added to individual well in 384 well-assay plates (Greiner #784076) using an Echo (LabCyte) dispenser from 10 mM stocks. Varying concentration of compounds were added to wells, and DMSO was used to normalize each well to a volume of 100 nL. A dose response curve of GLP-1(7-36)NH2 (Bachem H-6795) was included in each run. 5 μL of cAMP concentration response standards are applied in specified wells in the assay plates. Cryo-preserved cells are thawed and resuspended in assay buffer pre-heated to 37° C. (20 mM 2-[4-(2-hydroxyethyl)piperazin-1-yl]ethanesulfonic acid (HEPES) pH 7.4, 1× Hank's Balanced Salt Solution (HBSS, Life Technologies #14065) supplemented with 0.1% (w/v) bovine serum albumin (Sigma, A-7030)). Cells were centrifuged at 250*g for 5 min at rt, and resuspended in room tempered assay buffer to a final density of 0.16*10^6 cell/mL, to deliver 800 cells/well. 5 μL of assay buffer with 1 mM 3-isobutyl-1-methylxanthin (IBMX; Sigma cat I-7018) was dispensed per well in assay plates using a multidrop combi (Thermo Scientific) subsequently 5 μL of cell suspension was distributed to relevant wells in the assay using a multidrop dispenser. Assay plates were incubated 20 min at rt.
Detection reagents, Europium-Cryptate-labeled anti-cAMP antibody and cAMP labeled with the dye d2, are diluted in lysis buffer, provided by the manufacturer. 5 μL of each detection reagent is supplemented to each assay well using a multidrop dispenser. Assay plates are incubated in the dark for at least one h. The HTRF signal is measured using the HTRF module (excitation: 337 nm, emission A: 665 nm and emission B: 620 nm) in Pherastar FSX (BMG Labtech).
Raw data were converted to pM cAMP using the cAMP standard curve included in each run. Converted data were further analyzed in Genedata Screener (Genedata) and EC50 determinations were made from agonist dose-response curves analyzed with a curve fitting is program using a 4-parameter logistic dose response equation (Equation y=A+((B-A)/1+((C/x)^D))) where A is no stimulation, B is full stimulation, C is the EC50 and D is the Hill slope). The percent effect was determined relative to a saturating concentration of a full GLP-1R agonist (GLP-1(7-36)NH2 has 100% effect in this assay setup).

T1 sequence (P43220 24-463): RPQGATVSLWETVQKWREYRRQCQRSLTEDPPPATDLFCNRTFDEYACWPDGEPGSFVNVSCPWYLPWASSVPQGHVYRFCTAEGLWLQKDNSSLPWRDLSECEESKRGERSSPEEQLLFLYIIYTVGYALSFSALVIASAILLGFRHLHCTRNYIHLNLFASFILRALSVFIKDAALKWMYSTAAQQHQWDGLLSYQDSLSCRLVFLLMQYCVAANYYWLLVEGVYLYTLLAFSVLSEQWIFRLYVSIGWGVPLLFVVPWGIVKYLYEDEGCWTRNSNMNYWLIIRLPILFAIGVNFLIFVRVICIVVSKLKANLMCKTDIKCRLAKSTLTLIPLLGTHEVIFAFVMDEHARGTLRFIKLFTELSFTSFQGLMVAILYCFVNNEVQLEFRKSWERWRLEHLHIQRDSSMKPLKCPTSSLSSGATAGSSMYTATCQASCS
T2 sequence (P43220 24-463 L260F): as the sequence (P43220 24-463) above, with L237F counted along it

COc1cc(C(=O)O)cc2c1nc(CN1CCN(c3cccc4c3O[C@@](C)(c3ccc(Cl)cn3)O4)[C@H]3CC[C@@H]31)n2CC1(C#N)CC1 (single isomer, unassigned) [Example 25b]
EC50 [1]: 7.5 nM | EC50 (human GLP-1R receptor): 6.2 nM

C[C@]1(c2ccc(Cl)cn2)Oc2cccc(N3CCN(Cc4nc5c(Cl)cc(C(=O)O)cc5n4CC4(CC#N)CC4)[C@H]4CC[C@@H]43)c2O1 (single isomer, unassigned) [Example 26c]
EC50 [1]: 160 nM | EC50 (human GLP-1R receptor): 64 nM

CCn1ccnc1Cn1c(CN2CCN(c3cccc4c3O[C@@](C)(c3ccc(Cl)cn3)O4)[C@H]3CC[C@@H]32)nc2c(Cl)cc(C(=O)O)cc21 (single isomer, unassigned) [Example 10b]
EC50 [1]: 76 nM | EC50 (human GLP-1R receptor): 19 nM

COc1cc(C(=O)O)cc2c1nc(CN1CCN(c3cccc4c3O[C@@](C)(c3ccc(Cl)cn3)O4)[C@@H]3CC[C@@H]31)n2C[C@@H]1CCCO1 (relative stereo) [Example 8b, 2-((1R*,6S*)-5-(R*)-2-(5-Chloropyridin-2-yl)-2-methylbenzo[d][1,3]dioxol-4-yl)-2,5-diazabicyclo[4.2.0]octan-2-yl)methyl)-4-methoxy-1-(((S)-tetrahydrofuran-2-yl)methyl)-1H-benzo[d]imidazole-6-carboxylic acid]
EC50 [1]: 590 nM | EC50 (human GLP-1R receptor): 400 nM

C[C@]1(c2ccc(Cl)cc2F)Oc2cccc(N3CCN(Cc4nc5ccc(C(=O)O)cc5n4C[C@@H]4CCO4)[C@H]4CC[C@H]43)c2O1 (single isomer, unassigned) [Example 18b, 2-((1R*,6S*)-5-(R*)-2-(4-Chloro-2-fluorophenyl)-2-methylbenzo[d][1,3]dioxol-4-yl)-2,5-diazabicyclo[4.2.0]octan-2-yl)methyl)-1-(((S)-oxetan-2-yl)methyl)-1H-benzo[d]imidazole-6-carboxylic acid]
EC50 [1]: 480 nM | EC50 (human GLP-1R receptor): 120 nM

COc1cc(C(=O)O)cc2c1nc(CN1CCN(c3cccc4c3O[C@@](C)(c3ccc(Cl)cn3)O4)[C@@H]3CC[C@@H]31)n2C[C@@H]1CCCO1 (single isomer, unassigned) [Example 8a]
EC50 [1]: 6.6 nM | EC50 (human GLP-1R receptor): 6.2 nM

COc1cc(C(=O)O)cc2c1nc(CN1CCN(c3cccc4c3O[C@@](C)(c3ccc(Cl)cn3)O4)[C@H]3CC[C@@H]31)n2CC1(C#N)CC1 (single isomer, unassigned) [Example 25c]
EC50 [1]: 3.1 nM | EC50 (human GLP-1R receptor): 1.2 nM

COc1cc(C(=O)O)cc2c1nc(CN1CCN(c3cccc4c3O[C@@](C)(c3ccc(Cl)cn3)O4)[C@H]3CC[C@@H]31)n2CC1(C#N)CC1 (single isomer, unassigned) [Example 25d]
EC50 [1]: 74 nM | EC50 (human GLP-1R receptor): 36 nM

C[C@]1(c2ccc(Cl)cn2)Oc2cccc(N3CCN(Cc4nc5c(F)cc(C(=O)O)cc5n4CC4(CC#N)CC4)[C@H]4CC[C@@H]43)c2O1 (single isomer, unassigned) [Example 23a]
EC50 [1]: 2.8 nM | EC50 (human GLP-1R receptor): 1.1 nM

C[C@]1(c2ccc(Cl)cn2)Oc2cccc(N3CCN(Cc4nc5c(Cl)cc(C(=O)O)cc5n4CC4(CC#N)CC4)[C@H]4CC[C@@H]43)c2O1 (single isomer, unassigned) [Example 26b]
EC50 [1]: 2 nM | EC50 (human GLP-1R receptor): 1.5 nM

COc1cc(C(=O)O)cc2c1nc(CN1CCN(c3cccc4c3O[C@@](C)(c3ccc(Cl)cn3)O4)[C@H]3CC[C@@H]31)n2CCOC1CC1 (relative stereo) [Example 27, rel-2-(((1R,6R)-5-((R)-2-(5-Chloropyridin-2-yl)-2-methylbenzo[d][1,3]dioxol-4-yl)-2,5-diazabicyclo[4.2.0]octan-2-yl)methyl)-1-(2-cyclopropoxvethyl)-4-methoxy-1H-benzo[d]imidazole-6-carboxylic acid]
EC50 [1]: 200 nM | EC50 (human GLP-1R receptor): 65 nM

C[C@]1(c2ccc(Cl)cc2F)Oc2cccc(N3CCN(Cc4nc5c(F)cc(C(=O)O)cc5n4C[C@@H]4CCO4)[C@H]4CC[C@H]43)c2O1 (single isomer, unassigned) [Example 9c, 2-(((1R*,6S*)-5-((R*)-2-(4-Chloro-2-fluorophenyl)-2-methylbenzo[d][1,3]dioxol-4-yl)-2,5-diazabicyclo[4.2.0]octan-2-yl)methyl)-4-fluoro-1-(((S)-oxetan-2-yl)methyl)-1H-benzo[d]imidazole-6-carboxylic acid]
EC50 [1]: 74 nM | EC50 (human GLP-1R receptor): 28 nM

C[C@]1(c2ccc(Cl)cn2)Oc2cccc(N3CCN(Cc4nc5ccc(C(=O)O)cc5n4C[C@@H]4CCO4)[C@H]4CC[C@H]43)c2O1 (single isomer, unassigned) [Example 5b, 2-((1R*,6S*)-5-(R*)-2-(5-Chloropyridin-2-yl)-2-methylbenzo[d][1,3]dioxol-4-yl)-2,5-diazabicyclo[4.2.0]octan-2-yl)methyl)-1-(((S)-oxetan-2-yl)methyl)-1H-benzo[d]imidazole-6-carboxylic acid]
EC50 [1]: 120 nM | EC50 (human GLP-1R receptor): 18 nM

C[C@]1(c2ccc(Cl)cn2)Oc2cccc(N3CCN(Cc4nc5ccc(C(=O)O)cc5n4C[C@@H]4CCO4)[C@H]4CC[C@H]43)c2O1 (single isomer, unassigned) [Example 5d, 2-((1R*,6S*)-5-(R*)-2-(5-Chloropyridin-2-yl)-2-methylbenzo[d][1,3]dioxol-4-yl)-2,5-diazabicyclo[4.2.0]octan-2-yl)methyl)-1-(((S)-oxetan-2-yl)methyl)-1H-benzo[d]imidazole-6-carboxylic acid]
EC50 [1]: 8.6 nM | EC50 (human GLP-1R receptor): 4.7 nM

C[C@]1(c2ccc(Cl)cn2)Oc2cccc(N3CCN(Cc4nc5c(Cl)cc(C(=O)O)cc5n4C[C@@H]4CCO4)[C@H]4CC[C@H]43)c2O1 (single isomer, unassigned) [Example 20c, 4-Chloro-2-(((1R*,6S*)-5-((R*)-2-(5-chloropyridin-2-yl)-2-methylbenzo[d][1,3]dioxol-4-yl)-2,5-diazabicyclo[4.2.0]octan-2-yl)methyl)-1-(((S)-oxetan-2-yl)methyl)-1H-benzo[d]imidazole-6-carboxylic acid]
EC50 [1]: 2.2 nM | EC50 (human GLP-1R receptor): 0.81 nM
